Measurements: patent US12629374B2, “Antimalarial agents” (Merck Sharp & Dohme LLC, priority 2020, dated 2026)
Counter-ions that a name gives are not always drawn. Like-named read-outs stand apart in the source and are kept apart here.

Tested on: ring stage parasites
Test: Parasite growth potency assay, 72 hours, LDH readout
Assay type: cell-based
Conditions: parasite growth measured by LDH assay after 72 hours at 37° C., 0.7% rings, 2% haematocrit, read-out: EC50
In short: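 Parasite growth was quantified by LDH assay after a −80 °C freeze-thaw. Before that, compound was incubated for 72 h at 37 °C under humidified gas with ring-stage cultures adjusted to 0.7% parasitemia and 2% haematocrit in serum- and albumax-supplemented RPMI-Hepes.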

Compound	EC50 (72 h) [nM]	further results
CCC1(CC)CC(=O)N(Cc2cc(C#N)cc(C(=O)N[C@@H]3CC(C)(C)Oc4ccccc43)c2)C(=N)N1 (stereo in doubt) [Example 89A, [1-[[3-cyano-5-[(2,2-dimethylchroman-4-yl)carbamoyl]phenyl]methyl]-4,4-diethyl-6-oxo-hexahydropyrimidin-2-ylidene]ammonium; 2,2,2-trifluoroacetate]	9.8	–
CCC1(CC)CC(=O)N([C@H](COCCOC)c2cccc(C(=O)NC3c4ccccc4CC3(C)O)c2)C(=N)N1 (stereo partly drawn) [Example 146A, 3-[(1S)-1-(4,4-diethyl-2-imino-6-oxo-hexahydropyrimidin-1-yl)-2-(2-methoxyethoxy)ethyl]-N-(2-hydroxy-2-methyl-indan-1-yl)benzamide]	5.3	–
CCC[C@@H](c1cccc(C(=O)NC2CC(C)(C)Oc3ccccc32)c1)N1C(=N)NC(CC)(CC)CC1=O (stereo in doubt) [Example 62B, [1-[1-[3-[(2,2-dimethylchroman-4-yl)carbamoyl]phenyl]butyl]-4,4-diethyl-6-oxo-hexahydropyrimidin-2-ylidene]ammonium; 2,2,2-trifluoroacetate]	7.5	–
CCC1(CC)CC(=O)N([C@@H](c2cccc(C(=O)N[C@@H]3c4ccccc4C[C@H]3O)c2)c2cccc(S(C)(=O)=O)c2)C(=N)N1 [Example 124A, [4,4-diethyl-1-[[3-[[(1R,2R)-2-hydroxyindan-1-yl]carbamoyl]phenyl]-(3-methylsulfonylphenyl)methyl]-6-oxo-hexahydropyrimidin-2-ylidene]ammonium; 2,2,2-trifluoroacetate]	9.9	–
CCC1(CC)CC(=O)N(Cc2cccc(C(=O)N[C@@H]3c4ccccc4C[C@H]3O)n2)C(=N)N1 [Example 37, [4,4-diethyl-1-[[6-[[(1R,2R)-2-hydroxyindan-1-yl]carbamoyl]-2-pyridyl]methyl]-6-oxo-hexahydropyrimidin-2-ylidene]ammonium; 2,2,2-trifluoroacetate]	14.4	–
CCC1(CC)CC(=O)N([C@H](CCOC(F)F)c2cccc(C(=O)N[C@@H]3c4ccccc4C[C@@]3(C)O)c2)C(=N)N1 [Example 158A, 3-[1-(4,4-diethyl-2-imino-6-oxo-hexahydropyrimidin-1-yl)-3-(difluoromethoxy)propyl]-N-[(1R,2R)-2-hydroxy-2-methyl-indan-1-yl]benzamide]	2.6	–
CCC1(CC)CC(=O)N([C@@H](COCCOC)c2cccc(C(=O)N[C@H]3CC(C)(C)Oc4ccccc43)c2)C(=N)N1 (single isomer, unassigned) [Example 112B, trifluoroacetate]	59.6	–
COCC[C@H](c1cccc(C(=O)N[C@H]2CC(C)(C)Oc3ccccc32)c1)N1C(=N)NC(C)(C)CC1=O [Example 177, [1-[(1R)-1-[3-[[(4S)-2,2-dimethylchroman-4-yl]carbamoyl]phenyl]-3-methoxy-propyl]-4,4-dimethyl-6-oxo-hexahydropyrimidin-2-ylidene]ammonium; 2,2,2-trifluoroacetate]	2.1	–
CCC[C@H](c1cccc(C(=O)N[C@H]2c3ccccc3CC2(C)O)c1)N1C(=N)NC(CC)(CC)CC1=O (single isomer, unassigned) [Example 122B]	–	EC50: 17.7 nM
CCC1(CC)CC(=O)N([C@H](CCN2CCCC2)c2cccc(C(=O)N[C@H]3CCOc4ccccc43)c2)C(=N)N1 [Example 58, [1-[1-[3-[[(4S)-chroman-4-yl]carbamoyl]phenyl]-3-pyrrolidin-1-ium-1-yl-propyl]-4,4-diethyl-6-oxo-hexahydropyrimidin-2-ylidene]ammonium; 2,2,2-trifluoroacetate]	1.3	–
CCC1(CC)CC(=O)N([C@H](CCOC)c2cc(F)cc(C(=O)NC3c4ccccc4OC3(C)COC)c2)C(=N)N1 (single isomer, unassigned) [Example 176A, trifluoroacetate]	–	EC50 (trifluoroacetate): 21.8 nM
